{"source": "patent US20260285850A1", "about": "“SUBSTITUTED OXAZOLIDINONES AND IMIDAZOLINONES AS HERBICIDES” (FMC CORPORATION, priority 2023, published 2026)", "type_in_all_cases": "in vivo", "key": {"[1]": {"tested_on": "ducksalad (Heteranthera limosa)", "assay": "Test B flooded paddy test, visual plant response rating 0-100", "conditions": "250 g ai/ha, Flood, applied to paddy water, evaluated after 13 days", "how_it_was_run": "(§1)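 Plants were grown to the 2-leaf stage, then pots were flooded to 3 cm above the soil and test compounds were applied directly into the paddy water. Water depth was held there throughout; after 13 days in a greenhouse, injury was scored visually against untreated controls.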"}, "[2]": {"tested_on": "sedge, umbrella (small-flower umbrella sedge, Cyperus difformis)", "assay": "Test B flooded paddy test, visual plant response rating 0-100", "conditions": "250 g ai/ha, Flood, applied to paddy water, evaluated after 13 days", "how_it_was_run": "as §1"}, "rice (Oryza sativa)": {"tested_on": "rice (Oryza sativa)", "assay": "Test B flooded paddy test, visual plant response rating 0-100", "conditions": "250 g ai/ha, Flood, applied to paddy water, evaluated after 13 days", "how_it_was_run": "as §1"}, "[3]": {"tested_on": "barnyardgrass (Echinochloa crusgalli)", "assay": "Test B flooded paddy test, visual plant response rating 0-100", "conditions": "250 g ai/ha, Flood, applied to paddy water, evaluated after 13 days", "how_it_was_run": "as §1"}, "soybean (Glycine max) [4]": {"tested_on": "soybean (Glycine max)", "assay": "Test A preemergence soil spray, visual injury rating 0-100", "conditions": "10 days", "how_it_was_run": "(§2)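 Scale 0–100 (no effect to complete control), visual, versus untreated controls, read 10 days after application. Application: preemergence directed spray onto seeded loam–sand soil, or postemergence to young plants; formulation in non-phytotoxic solvent with surfactant.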"}, "corn (Zea mays) [5]": {"tested_on": "corn (Zea mays)", "assay": "Test A preemergence soil spray, visual injury rating 0-100", "conditions": "10 days", "how_it_was_run": "as §2"}, "[6]": {"tested_on": "green foxtail (Setaria viridis)", "assay": "Test A preemergence soil spray, visual injury rating 0-100", "conditions": "10 days", "how_it_was_run": "as §2"}, "[7]": {"tested_on": "palmer (palmer amaranth, palmer pigweed, Amaranthus palmeri)", "assay": "Test A preemergence soil spray, visual injury rating 0-100", "conditions": "10 days", "how_it_was_run": "as §2"}, "[8]": {"tested_on": "blackgrass (Alopecurus myosuroides)", "assay": "Test A preemergence soil spray, visual injury rating 0-100", "conditions": "10 days", "how_it_was_run": "as §2"}, "[9]": {"tested_on": "ryegrass, Italian (italian ryegrass, Lolium multiflorum)", "assay": "Test A preemergence soil spray, visual injury rating 0-100", "conditions": "10 days", "how_it_was_run": "as §2"}, "[10]": {"tested_on": "barnyardgrass (Echinochloa crus-galli)", "assay": "Test A preemergence soil spray, visual injury rating 0-100", "conditions": "10 days", "how_it_was_run": "as §2"}, "[11]": {"tested_on": "wheat (Triticum aestivum)", "assay": "Test A preemergence soil spray, visual injury rating 0-100", "conditions": "10 days", "how_it_was_run": "as §2"}, "[12]": {"tested_on": "oat, wild (wild oat, Avena fatua)", "assay": "Test A preemergence soil spray, visual injury rating 0-100", "conditions": "10 days", "how_it_was_run": "as §2"}, "[13]": {"tested_on": "ragweed (common ragweed, Ambrosia artemisiifolia)", "assay": "Test A preemergence soil spray, visual injury rating 0-100", "conditions": "10 days", "how_it_was_run": "as §2"}, "kochia (Bassia scoparia) [14]": {"tested_on": "kochia (Bassia scoparia)", "assay": "Test A preemergence soil spray, visual injury rating 0-100", "conditions": "10 days", "how_it_was_run": "as §2"}, "soybean (Glycine max) [15]": {"tested_on": "soybean (Glycine max)", "assay": "Test A postemergence application, visual injury rating 0-100", "how_it_was_run": "as §2"}, "corn (Zea mays) [16]": {"tested_on": "corn (Zea mays)", "assay": "Test A postemergence application, visual injury rating 0-100", "how_it_was_run": "as §2"}, "[17]": {"tested_on": "horseweed (Erigeron canadensis)", "assay": "Test A postemergence application, visual injury rating 0-100", "how_it_was_run": "as §2"}, "[18]": {"tested_on": "green foxtail (Setaria viridis)", "assay": "Test A postemergence application, visual injury rating 0-100", "how_it_was_run": "as §2"}, "[19]": {"tested_on": "palmer (palmer amaranth, palmer pigweed, Amaranthus palmeri)", "assay": "Test A postemergence application, visual injury rating 0-100", "how_it_was_run": "as §2"}, "[20]": {"tested_on": "blackgrass (Alopecurus myosuroides)", "assay": "Test A postemergence application, visual injury rating 0-100", "how_it_was_run": "as §2"}, "[21]": {"tested_on": "ryegrass, Italian (italian ryegrass, Lolium multiflorum)", "assay": "Test A postemergence application, visual injury rating 0-100", "how_it_was_run": "as §2"}, "[22]": {"tested_on": "barnyardgrass (Echinochloa crus-galli)", "assay": "Test A postemergence application, visual injury rating 0-100", "how_it_was_run": "as §2"}, "[23]": {"tested_on": "wheat (Triticum aestivum)", "assay": "Test A postemergence application, visual injury rating 0-100", "how_it_was_run": "as §2"}, "[24]": {"tested_on": "oat, wild (wild oat, Avena fatua)", "assay": "Test A postemergence application, visual injury rating 0-100", "how_it_was_run": "as §2"}, "[25]": {"tested_on": "ragweed (common ragweed, Ambrosia artemisiifolia)", "assay": "Test A postemergence application, visual injury rating 0-100", "how_it_was_run": "as §2"}, "kochia (Bassia scoparia) [26]": {"tested_on": "kochia (Bassia scoparia)", "assay": "Test A postemergence application, visual injury rating 0-100", "how_it_was_run": "as §2"}, "[27]": {"conditions": "62 g ai/ha, 0 = no effect, 100 = complete control"}, "[28]": {"conditions": "62 g ai/ha, postemergence, 10 days, 0 = no effect, 100 = complete control"}, "[29]": {"conditions": "Postemergence, 16 g ai/ha, greenhouse 10 days, 0 no effect, 100 complete control"}}}
{"smiles": "CC(C)OC(=O)C1=CCC(NC(=O)C2(C)CN(c3cc(Cl)cc(Cl)c3)C(=O)O2)C1", "note": "(centres unmarked) [Compound 106]", "values": [{"measurement": "Plant response rating, Ducksalad (0 to 100 scale, 0 is no effect and 100 is complete control)", "setting": "[1]", "value": 85}, {"measurement": "Plant response rating, Sedge, Umbrella (0 to 100 scale, 0 is no effect and 100 is complete control)", "setting": "[2]", "value": 98}, {"measurement": "Plant response rating, Rice (0 to 100 scale, 0 is no effect and 100 is complete control)", "setting": "rice (Oryza sativa)", "value": 10}, {"measurement": "Plant response rating, Barnyardgrass (0 to 100 scale, 0 is no effect and 100 is complete control)", "setting": "[3]", "value": 65}, {"measurement": "Soybean plant response rating", "setting": "soybean (Glycine max) [4]; 16 g ai/ha, 0 to 100 scale", "value": 0}, {"measurement": "Soybean plant response rating (0-100)", "setting": "soybean (Glycine max) [4]; [27]", "value": 0}, {"measurement": "Corn plant response rating", "setting": "corn (Zea mays) [5]; 16 g ai/ha, 0 to 100 scale", "value": 0}, {"measurement": "Corn plant response rating (0-100)", "setting": "corn (Zea mays) [5]; [27]", "value": 0}, {"measurement": "Foxtail, Green plant response rating", "setting": "[6]; 16 g ai/ha, 0 to 100 scale", "value": 0}, {"measurement": "Foxtail, Green plant response rating (0-100)", "setting": "[6]; [27]", "value": 0}, {"measurement": "Pigweed, Palmer plant response rating", "setting": "[7]; 16 g ai/ha, 0 to 100 scale", "value": 0}, {"measurement": "Pigweed, Palmer plant response rating (0-100)", "setting": "[7]; [27]", "value": 0}, {"measurement": "Blackgrass plant response rating", "setting": "[8]; 16 g ai/ha, 0 to 100 scale", "value": 0}, {"measurement": "Blackgrass plant response rating (0-100)", "setting": "[8]; [27]", "value": 0}, {"measurement": "Ryegrass, Italian plant response rating", "setting": "[9]; 16 g ai/ha, 0 to 100 scale", "value": 0}, {"measurement": "Ryegrass, Italian plant response rating (0-100)", "setting": "[9]; [27]", "value": 0}, {"measurement": "Barnyardgrass plant response rating", "setting": "[10]; 16 g ai/ha, 0 to 100 scale", "value": 0}, {"measurement": "Barnyardgrass plant response rating (0-100)", "setting": "[10]; [27]", "value": 0}, {"measurement": "Wheat plant response rating", "setting": "[11]; 16 g ai/ha, 0 to 100 scale", "value": 0}, {"measurement": "Wheat plant response rating (0-100)", "setting": "[11]; [27]", "value": 0}, {"measurement": "Oat, Wild plant response rating", "setting": "[12]; 16 g ai/ha, 0 to 100 scale", "value": 0}, {"measurement": "Oat, Wild plant response rating (0-100)", "setting": "[12]; [27]", "value": 0}, {"measurement": "Ragweed plant response rating", "setting": "[13]; 16 g ai/ha, 0 to 100 scale", "value": 0}, {"measurement": "Ragweed plant response rating (0-100)", "setting": "[13]; [27]", "value": 0}, {"measurement": "Kochia plant response rating", "setting": "kochia (Bassia scoparia) [14]; 16 g ai/ha, 0 to 100 scale", "value": 0}, {"measurement": "Kochia plant response rating (0-100)", "setting": "kochia (Bassia scoparia) [14]; [27]", "value": 0}, {"measurement": "Soybean plant response rating (0-100)", "setting": "soybean (Glycine max) [15]; [28]", "value": 0}, {"measurement": "Soybean plant response rating (0 to 100 scale)", "setting": "soybean (Glycine max) [15]; [29]", "value": 0}, {"measurement": "Corn plant response rating (0-100)", "setting": "corn (Zea mays) [16]; [28]", "value": 0}, {"measurement": "Corn plant response rating (0 to 100 scale)", "setting": "corn (Zea mays) [16]; [29]", "value": 0}, {"measurement": "Horseweed plant response rating (0-100)", "setting": "[17]; [28]", "value": 0}, {"measurement": "Horseweed plant response rating (0 to 100 scale)", "setting": "[17]; [29]", "value": 0}, {"measurement": "Foxtail, Green plant response rating (0-100)", "setting": "[18]; [28]", "value": 0}, {"measurement": "Foxtail, Green plant response rating (0 to 100 scale)", "setting": "[18]; [29]", "value": 0}, {"measurement": "Pigweed, Palmer plant response rating (0-100)", "setting": "[19]; [28]", "value": 0}, {"measurement": "Pigweed, Palmer plant response rating (0 to 100 scale)", "setting": "[19]; [29]", "value": 0}, {"measurement": "Blackgrass plant response rating (0-100)", "setting": "[20]; [28]", "value": 0}, {"measurement": "Blackgrass plant response rating (0 to 100 scale)", "setting": "[20]; [29]", "value": 0}, {"measurement": "Ryegrass, Italian plant response rating (0-100)", "setting": "[21]; [28]", "value": 0}, {"measurement": "Ryegrass, Italian plant response rating (0 to 100 scale)", "setting": "[21]; [29]", "value": 0}, {"measurement": "Barnyardgrass plant response rating (0-100)", "setting": "[22]; [28]", "value": 0}, {"measurement": "Barnyardgrass plant response rating (0 to 100 scale)", "setting": "[22]; [29]", "value": 0}, {"measurement": "Wheat plant response rating (0-100)", "setting": "[23]; [28]", "value": 0}, {"measurement": "Wheat plant response rating (0 to 100 scale)", "setting": "[23]; [29]", "value": 0}, {"measurement": "Oat, Wild plant response rating (0-100)", "setting": "[24]; [28]", "value": 0}, {"measurement": "Oat, Wild plant response rating (0 to 100 scale)", "setting": "[24]; [29]", "value": 0}, {"measurement": "Ragweed plant response rating (0-100)", "setting": "[25]; [28]", "value": 0}, {"measurement": "Ragweed plant response rating (0 to 100 scale)", "setting": "[25]; [29]", "value": 0}, {"measurement": "Kochia plant response rating (0-100)", "setting": "kochia (Bassia scoparia) [26]; [28]", "value": 0}, {"measurement": "Kochia plant response rating (0 to 100 scale)", "setting": "kochia (Bassia scoparia) [26]; [29]", "value": 0}]}
